Our source for the EC50, Emax and inhibition values is patent publication US10166218B2, “3-(1H-indol-2-yl)-1H-pyrazolo[3,4-C]pyridines and therapeutic uses thereof” (Samumed, LLC, priority 2015, dated 2019).

Holding throughout (type): cell-based
In experiment [1] the test system is primary human mesenchymal stem cells (hMSCs). In words: Induction of chondrogenesis in primary human mesenchymal stem cells (chondrogenic nodules). The settings on record: 144 h, 6 days; for EC50: concentration required to induce 50% levels of chondrogenesis of TGF-β3 positive control, read-out: Conc (nM) of 50% TGF-β3 activity; for Emax: nodules, relative to TGF-β3 (10 ng/mL) positive control, read-out: Max. Activity as % TGF-β3 activity. On the procedure:
Representative compounds were screened using primary human mesenchymal stem cells (hMSCs) to determine their ability to induce chondrogenesis (process by which cartilage is developed).
Primary human mesenchymal stem cells (hMSCs) were purchased from Lonza (Walkersville, Md.) and expanded in Mesenchymal Stem Cell Growth Media (Lonza). Cells between passage 3 and 6 were used for the experiments.
Each compound was dissolved in DMSO as a 10 mM stock and used to prepare compound source plates. Serial dilution (1:3, 6-point dose-response curves from 2700 nM to 10 nM) and compound transfer was performed using the ECHO 550 (Labcyte, Sunnyvale, Calif.) into 96-well clear bottom assay plates (Greiner Bio-One) with appropriate DMSO backfill for a final DMSO concentration of 0.03%. hMSCs were plated at 20,000 cells/well in 250 μL/well Incomplete Chondrogenic Induction Medium (Lonza; DMEM, dexamethasone, ascorbate, insulin-transferrin-selenium [ITS supplement], gentamycin-amphotericin [GA-1000], sodium pyruvate, proline and L-glutamine). TGF-β3 (10 ng/mL) was used as a positive control for differentiation while negative control wells were treated with 75 nL DMSO for normalization and calculating EC50 values. Cells were incubated at 37° C. and 5% CO2 for 6 days. To image chondrogenic nodules, the cells were fixed using 4% formaldehyde (Electron Microscopy Sciences), and stained with 2 μg/mL Rhodamine B (Sigma-Aldrich) and 20 μM Nile Red (Sigma-Aldrich) [Johnson K., et. al, A Stem Cell-Based Approach to Cartilage Repair, Science, (2012), 336(6082), 717-721]. The nodules imaged (4 images per well at 4× magnification) by excitation at 531 nm and emission at 625 nm and quantified using the CellInsight CX5 (Thermo Scientific). Number of nodules in each well was normalized to the average of 3 DMSO treated wells on the same plate using Excel (Microsoft Inc.). The normalized averages (fold change over DMSO) of 3 replicate wells for each compound concentration were calculated. Due to solubility limitations of some of the compounds, curve fitting was incomplete leading to inaccurate EC50 determinations.
Using TGF-β3 as a positive control, the concentration of representative compounds required to induce 50% levels of chondrogenesis is reported. In addition, the maximum activity of each compound and the respective dose that each compound reached maximum chondrogenesis activity is reported.

Another experiment concerns SW480 colon cancer cells. In words: Cell viability assay (CellTiter-Blue) in SW480 colon cancer cells. Conditions: Homo sapiens, 96 h, four days; for EC50: CellTiter-Blue; for inhibition at 10 µM: read-out: percent inhibition at 10 μM (given for EC50 of >10 μM). Summed up: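 Approximately 2×10^3 SW480 cells per well are seeded with compound (8 points, threefold steps, top 10 μM) and incubated four days at 37 °C. CellTiter-Blue is then added for about 3 h and fluorescence read. Non-linear regression gives EC50; for values beyond 10 μM, percent inhibition at that concentration is listed.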
A general note: The colour change of resazurin is a common sign of viable cells or microbes.

Experiment [2] concerns Wnt activity (Sp5-Luc reporter, TCF/LEF binding sites) in SW480 colon carcinoma cells. In words: Screening assay for Wnt activity: Sp5-Luc reporter gene assay in stably transduced SW480 cells. Conditions: Homo sapiens; for EC50: overnight incubation. Summed up:
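Luminescence read-out (BrightGlo) from stable Sp5-Luc SW480 cells, normalized to DMSO-only wells. Cells were treated overnight at 37° C in 1% FBS medium across a 1:3, 10-point series starting at 10 μM. EC50 from variable-slope four-parameter regression; percent inhibition at 10 μM given where EC50 >10 μM.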

Where only a bound is given, the exact number is not on record here.

Take `CCNCc1cncc(-c2cc3c(-c4cc5c(-c6ccc(F)cc6)cccc5[nH]4)n[nH]c3cn2)c1` [Compound 34, N-((5-(3-(4-(4-Fluorophenyl)-1H-indol-2-yl)-1H-pyrazolo[3,4-c]pyridin-5-yl)pyridin-3-yl)methyl)ethanamine]: the EC50 in experiment [1] came out at 900 nM; in the experiment with SW480 colon cancer cells it was 805 nM; in experiment [2] it was 382 nM. Further, the Emax in experiment [1] came out at 268%.

Turning to `Fc1ccc(-c2cccc3[nH]c(-c4n[nH]c5cnc(-c6cncc(CN7CCCC7)c6)cc45)cc23)cc1` [Compound 42, 3-(4-(4-Fluorophenyl)-1H-indol-2-yl)-5-(5-(pyrrolidin-1-ylmethyl)pyridin-3-yl)-1H-pyrazolo[3,4-c]pyridine], the EC50 in experiment [1] was determined as 300 nM; in the experiment with SW480 colon cancer cells, 1080 nM; in experiment [2] it was 1840 nM. Besides, the Emax in experiment [1] stood at 164%.

With `Nc1cncc(-c2cc3c(-c4cc5c(-c6ccccc6F)cccc5[nH]4)n[nH]c3cn2)c1` [Compound 59, 5-(3-(4-(2-Fluorophenyl)-1H-indol-2-yl)-1H-pyrazolo[3,4-c]pyridin-5-yl) pyridin-3-amine], the values for the EC50 (in experiment [1]; in the experiment with SW480 colon cancer cells; in experiment [2]) were 30 nM, 1300 nM and 296 nM, respectively. Besides, in experiment [1], the Emax was 94%.

Regarding `Fc1ccccc1-c1cccc2[nH]c(-c3n[nH]c4cnc(-c5cncc(CN6CCCCC6)c5)cc34)cc12` [Compound 71, 3-(4-(2-Fluorophenyl)-1H-indol-2-yl)-5-(5-(piperidin-1-ylmethyl)pyridin-3-yl)-1H-pyrazolo[3,4-c]pyridine], in experiment [1], the Emax stood at 18%. Moreover, the EC50 stood at 1660 nM in the experiment on SW480 colon cancer cells and 2090 nM in experiment [2].

On to `CCC(=O)Nc1cncc(-c2cc3c(-c4cc5c(-c6cccnc6)cccc5[nH]4)n[nH]c3cn2)c1` [Compound 85, N-(5-(3-(4-(Pyridin-3-yl)-1H-indol-2-yl)-1H-pyrazolo[3,4-c]pyridin-5-yl)pyridin-3-yl)propionamide], for which the Emax in experiment [1] turned out to be 101%. For the same compound, the EC50 was 1160 nM in the experiment on SW480 colon cancer cells and 305 nM in experiment [2].

Consider `c1cncc(-c2cc3c(-c4cc5c(-c6cccnc6)cccc5[nH]4)n[nH]c3cn2)c1` [Compound 88, 5-(Pyridin-3-yl)-3-(4-(pyridin-3-yl)-1H-indol-2-yl)-1H-pyrazolo[3,4-c]pyridine], for which the EC50 turned out to be 30 nM in experiment [1], 1090 nM in the experiment with SW480 colon cancer cells and 260 nM in experiment [2]. Besides, the Emax in experiment [1] stood at 141%.

In the case of `CC(C)C(=O)Nc1cncc(-c2cc3c(-c4cc5c(-c6cccnc6)cccc5[nH]4)n[nH]c3cn2)c1` [Compound 93, N-(5-(3-(4-(Pyridin-3-yl)-1H-indol-2-yl)-1H-pyrazolo[3,4-c]pyridin-5-yl)pyridin-3-yl)isobutyramide], the EC50 was 10 nM in experiment [1], 305 nM with SW480 colon cancer cells and 275 nM in experiment [2]. Moreover, the Emax in experiment [1] is 201%.

For `O=C(Nc1cncc(-c2cc3c(-c4cc5c(-c6cccnc6)cccc5[nH]4)n[nH]c3cn2)c1)c1ccccc1` [Compound 95, N-(5-(3-(4-(Pyridin-3-yl)-1H-indol-2-yl)-1H-pyrazolo[3,4-c]pyridin-5-yl)pyridin-3-yl)benzamide], the values for the EC50 (in experiment [1]; with SW480 colon cancer cells; in experiment [2]) were 100 nM, 1400 nM and 400 nM, respectively. Moreover, in experiment [1], the Emax stood at 236%.

Regarding `c1cncc(-c2cccc3[nH]c(-c4n[nH]c5cnc(-c6cncc(CN7CCCC7)c6)cc45)cc23)c1` [Compound 98, 3-(4-(Pyridin-3-yl)-1H-indol-2-yl)-5-(5-(pyrrolidin-1-ylmethyl)pyridin-3-yl)-1H-pyrazolo[3,4-c]pyridine], in experiment [1], the Emax came to 22%. For the same compound, the EC50 in the experiment on SW480 colon cancer cells came to 7220 nM; in experiment [2], 1200 nM.

Regarding `O=C(Nc1cncc(-c2cc3c(-c4cc5c(-c6cccnc6)cccc5[nH]4)n[nH]c3cn2)c1)C1CC1` [Compound 104, N-(5-(3-(4-(Pyridin-3-yl)-1H-indol-2-yl)-1H-pyrazolo[3,4-c]pyridin-5-yl)pyridin-3-yl)cyclopropanecarboxamide], the results for the EC50 (in experiment [1]; in the experiment with SW480 colon cancer cells; in experiment [2]) were 100 nM, 1470 nM and 336 nM, respectively. The Emax in experiment [1] worked out at 308%.

For `Nc1cncc(-c2cc3c(-c4cc5c(-c6ccccn6)cccc5[nH]4)n[nH]c3cn2)c1` [Compound 143, 5-(3-(4-(Pyridin-2-yl)-1H-indol-2-yl)-1H-pyrazolo[3,4-c]pyridin-5-yl) pyridin-3-amine], the values for the EC50 (in experiment [1]; in the experiment with SW480 colon cancer cells; in experiment [2]) were 300 nM, 1920 nM and 255 nM, respectively. Besides, in experiment [1], the Emax was found to be 118%.

Regarding `Cc1ccncc1-c1cc2c(-c3cc4c(-c5ccccn5)cccc4[nH]3)n[nH]c2cn1` [Compound 145, 5-(4-Methylpyridin-3-yl)-3-(4-(pyridin-2-yl)-1H-indol-2-yl)-1H-pyrazolo [3,4-c]pyridine], the EC50 in experiment [1] came to 30 nM; in the experiment on SW480 colon cancer cells, 814 nM; in experiment [2], 567 nM. In addition, the Emax in experiment [1] was 90%.

In the case of `CN(C)Cc1cncc(-c2cc3c(-c4cc5c(-c6ccccn6)cccc5[nH]4)n[nH]c3cn2)c1` [Compound 153, N,N-Dimethyl-1-(5-(3-(4-(pyridin-2-yl)-1H-indol-2-yl)-1H-pyrazolo[3,4-c]pyridin-5-yl)pyridin-3-yl)methanamine], the EC50 in experiment [1] came to 30 nM; in the experiment with SW480 colon cancer cells it was 2060 nM; in experiment [2] it was 711 nM. Further, the Emax in experiment [1] was found to be 75%.

For the compound `c1cc(N2CCCCC2)c2cc(-c3n[nH]c4cnc(-c5cncc(OC6CCCCC6)c5)cc34)[nH]c2c1` [Compound 635, 5-(5-(Cyclohexyloxy)pyridin-3-yl)-3-(4-(piperidin-1-yl)-1H-indol-2-yl)-1H-pyrazolo[3,4-c]pyridine], in the experiment on SW480 colon cancer cells, the inhibition (in general, the change of the read-out against control, counted positive when it falls) at 10 µM was determined as 26.8% and the EC50 was above 10000 nM. In experiment [2], the EC50 was 3840 nM.

With `c1cc(-c2ccoc2)c2cc(-c3n[nH]c4cnc(-c5cn[nH]c5)cc34)[nH]c2c1` [Compound 711, 3-(4-(Furan-3-yl)-1H-indol-2-yl)-5-(1H-pyrazol-4-yl)-1H-pyrazolo[3,4-c]pyridine], the inhibition at 10 µM in the experiment with SW480 colon cancer cells amounted to 45.1%. Besides, the EC50 is above 10000 nM in the experiment with SW480 colon cancer cells and 203 nM in experiment [2].

Turning to `c1csc(-c2cccc3[nH]c(-c4n[nH]c5cnc(C6CCNCC6)cc45)cc23)c1` [Compound 725, 5-(Piperidin-4-yl)-3-(4-(thiophen-2-yl)-1H-indol-2-yl)-1H-pyrazolo[3,4-c]pyridine], the inhibition at 10 µM in the experiment on SW480 colon cancer cells stood at 8.1%; in experiment [2] (10 μM, read-out: percent inhibition at 10 μM (given for EC50 of >10 μM)) it was 25.9%. The EC50 (with SW480 colon cancer cells; in experiment [2]) was above 10000 nM each time.

Turning to `Cn1cc(-c2cc3c(-c4cc5ncccc5[nH]4)n[nH]c3cn2)cn1` [Compound 1022, 5-(1-Methyl-1H-pyrazol-4-yl)-3-(1H-pyrrolo[3,2-b]pyridin-2-yl)-1H-pyrazolo[3,4-c]pyridine], the EC50 with SW480 colon cancer cells is 2560 nM; in experiment [2], 47 nM.

On to `CN(C)CCOc1cncc(-c2cc3c(-c4cc5ncccc5[nH]4)n[nH]c3cn2)c1` [Compound 1029, 2-((5-(3-(1H-Pyrrolo[3,2-b]pyridin-2-yl)-1H-pyrazolo[3,4-c]pyridin-5-yl)pyridin-3-yl)oxy)-N,N-dimethylethan-1-amine], for which, in the experiment on SW480 colon cancer cells, the inhibition at 10 µM worked out at 17.1% and the EC50 was above 10000 nM. Further, in experiment [2], the EC50 amounted to 3060 nM.
